In patent US20050101640A1 (Recordati Ireland Limited, priority 2002, published 2005):
Marks after values point to notes of the source that are not given here.

Tests used:
[1] = tested on: uninephrectomized anesthetized rats, renal ischemia/reperfusion hypertension; assay: Model of acute angiotensin-mediated renal hypertension in anesthetized rats (Example I); details: for DBP mean change ± S.D: DBP decrease after 10 minutes from the start of drug administration, lercanidipine 10 μg/kg, lisinopril 30 μg/kg i.v. or both, Anova factorial model; for effect on systolic blood pressure and diastolic blood pressure compared to vehicle (and, for the combination, to either drug alone): lercanidipine 10 μg/kg i.v. or both; for DBP / HR / SBP: mean ± S.E.M.
Description: Male Sprague-Dawley rats, weighing 250-300 g, were anaesthetized with pentobarbital sodium (35 mg/kg, i.p.) and placed on a thermic blanket. The temperature was maintained at 37° C. with a thermoregulator via a rectal probe. The animals were tracheotomized to facilitate spontaneous breathing. A polyethylene catheter was placed in the left jugular vein to allow for infusion of pentobarbital sodium to maintain anesthesia. The left femoral vein and artery were cannulated with polyethylene catheters to allow drugs administration and to monitor blood pressure, respectively.
The animals then underwent a left nephrectomy by excising the left kidney via a flank incision. The right kidney and renal vein, artery and ureter then were exposed via a right retroperitoneal incision, under a dissecting microscope. Silk threads were positioned loosely around both vessels and ureter. The cavity was then covered with Vaseline oil.
After 30-60 minutes of basal recordings of arterial blood pressure and heart rate the threads around the renal vessels and ureter were tied close to the renal hilum to induce complete renal ischemia of the right kidney. After 2 hours of ischemia (designated as “120” in Tables 4-7), the threads were removed to allow renal reperfusion and urine output. […] To evaluate the effects of drugs administration on blood pressure and heart rate, two-way ANOVA and Dunnet's test was used.

[2] = cited from earlier work
isolated rat aorta = details: in vitro; even after the drug has been removed for 6 hours; cited from earlier work
[3] = tested on: uninephrectomized anesthetized rats, renal ischemia/reperfusion hypertension; assay: Model of acute angiotensin-mediated renal hypertension in anesthetized rats (Example VI, with HCTZ); format: in vivo, Sprague-Dawley rats; details: for DBP / HR / SBP: mean ± S.E.M.
Text: The animals were tracheotomized to facilitate spontaneous breathing.
Silk threads were placed around both vessels and ureter. The cavity was then covered with Vaseline oil.
Results are expressed as mean values ±S.E in the tables and as mean values ±S.E. and Δ±S.E. changes in the figures.

[4] = time 0 min, basal, before ischemia and before drug
[5] = time 120 min, end of ischemia, before drug
[6] = time 125 min, 5 min after reperfusion, at drug administration (reference value)
[7] = time 130 min (5 min after i.v. drug), lisinopril 30 μg/kg, lercanidipine 10 μg/kg or both
[8] = time 135 min (10 min after i.v. drug), lisinopril 30 μg/kg, lercanidipine 10 μg/kg or both
[9] = time 150 min (25 min after i.v. drug), lisinopril 30 μg/kg, lercanidipine 10 μg/kg or both
[10] = time 165 min (40 min after i.v. drug), lisinopril 30 μg/kg, lercanidipine 10 μg/kg or both
[11] = time 180 min (55 min after i.v. drug), lisinopril 30 μg/kg, lercanidipine 10 μg/kg or both
[12] = time 130 min (5 min after i.v. drug), lisinopril+HCTZ 10+12 μg/kg, lercanidipine 7.5 μg/kg or all three
[13] = time 135 min (10 min after i.v. drug), lisinopril+HCTZ 10+12 μg/kg, lercanidipine 7.5 μg/kg or all three
[14] = time 150 min (25 min after i.v. drug), lisinopril+HCTZ 10+12 μg/kg, lercanidipine 7.5 μg/kg or all three
[15] = time 165 min (40 min after i.v. drug), lisinopril+HCTZ 10+12 μg/kg, lercanidipine 7.5 μg/kg or all three
[16] = time 180 min (55 min after i.v. drug), lisinopril+HCTZ 10+12 μg/kg, lercanidipine 7.5 μg/kg or all three

NCCCC[C@H](N[C@@H](CCc1ccccc1)C(=O)O)C(=O)N1CCC[C@H]1C(=O)O [lisinopril]
DBP mean change ± S.D [1]: 26.83 ± 4.40^a | effect on systolic blood pressure and diastolic blood pressure compared to vehicle (and, for the combination, to either drug alone) ([1]; lisinopril 30 μg/kg): significant decreases | DBP [1, 4]: 73.3 ± 3.2 mmHg | HR [1, 4]: 393.3 ± 8.8 beats/min | SBP [1, 4]: 104.2 ± 3.0 mmHg | DBP [1, 5]: 68.3 ± 2.3 mmHg | HR [1, 5]: 390.3 ± 10.0 beats/min | SBP [1, 5]: 99.3 ± 2.4 mmHg | DBP [1, 6]: 117.3 ± 1.3 mmHg | SBP [1, 6]: 154.3 ± 3.6 mmHg | DBP [1, 7]: 92.5 ± 1.0^b mmHg | HR [1, 7]: 408.3 ± 12.3 beats/min | SBP [1, 7]: 120.7 ± 1.7^b mmHg | DBP [1, 8]: 90.5 ± 1.2^b mmHg | HR [1, 8]: 405.8 ± 9.7 beats/min | SBP [1, 8]: 119.0 ± 2.1^b mmHg | DBP [1, 9]: 77.7 ± 4.1^b mmHg | HR [1, 9]: 406.7 ± 13.1 beats/min | SBP [1, 9]: 111.0 ± 4.0^b mmHg | DBP [1, 10]: 64.0 ± 4.8^b mmHg | HR [1, 10]: 406.7 ± 18.2 beats/min | SBP [1, 10]: 96.0 ± 6.0^b mmHg | DBP [1, 11]: 57.3 ± 5.1^b mmHg | HR [1, 11]: 400.0 ± 14.6 beats/min | SBP [1, 11]: 90.2 ± 6.8^b mmHg | time of peak serum concentrations ([2]; following oral administration): ≤ 7 h

COC(=O)C1=C(C)NC(C)=C(C(=O)OC(C)(C)CN(C)CCC(c2ccccc2)c2ccccc2)C1c1cccc([N+](=O)[O-])c1 (centres unmarked) [lercanidipine, methyl 1,1,N-trimethyl-N-(3,3-diphenylpropyl)-2-aminoethyl 1,4-dihydro-2,6-dimethyl-4-(3-nitrophenyl)pyridine-3,5-dicarboxylate]
DBP mean change ± S.D [1]: 26.13 ± 8.68^a | effect on systolic blood pressure and diastolic blood pressure compared to vehicle (and, for the combination, to either drug alone) ([1]; lisinopril 30 μg/kg): significant decreases | DBP [1, 4]: 69.8 ± 2.5 mmHg | HR [1, 4]: 359.6 ± 13.9 beats/min | SBP [1, 4]: 110.4 ± 3.6 mmHg | DBP [1, 5]: 70.6 ± 5.4 mmHg | HR [1, 5]: 359.3 ± 7.8 beats/min | SBP [1, 5]: 114.5 ± 6.5 mmHg | DBP [1, 6]: 119.3 ± 5.2 mmHg | HR [1, 6]: 383.6 ± 9.9 beats/min | SBP [1, 6]: 167.6 ± 8.9 mmHg | DBP [1, 7]: 97.1 ± 3.1^b mmHg | HR [1, 7]: 433.1 ± 8.9^b beats/min | SBP [1, 7]: 140.4 ± 3.8^b mmHg | DBP [1, 8]: 93.1 ± 4.0^b mmHg | HR [1, 8]: 448.0 ± 6.2^b beats/min | SBP [1, 8]: 140.5 ± 3.7^b mmHg | DBP [1, 9]: 89.5 ± 4.3^b mmHg | HR [1, 9]: 443.6 ± 8.2^b beats/min | SBP [1, 9]: 139.4 ± 3.7^b mmHg | DBP [1, 10]: 83.5 ± 4.6^b mmHg | HR [1, 10]: 435.5 ± 11.2^b beats/min | SBP [1, 10]: 132.0 ± 5.3^b mmHg | DBP [1, 11]: 78.8 ± 4.0^b mmHg | HR [1, 11]: 422.8 ± 12.0^b beats/min | SBP [1, 11]: 128.1 ± 4.7^b mmHg | isolated rat aorta response to high K+ (isolated rat aorta): attenuated | elimination route ([2]; in vivo): essentially via the hepatic route | time of peak plasma levels following dosing ([2]; unmodified release oral dosage form): 2 to 3 h | effect on blood pressure (in words) ([3]; i.v. at peak of reperfusion hypertension, lisinopril+HCTZ 10+12 μg/kg, lercanidipine 7.5 μg/kg or all three): statistically significant decrease in diastolic blood pressure | effect on heart rate (in words) ([3]; lisinopril+HCTZ 10+12 μg/kg, lercanidipine 7.5 μg/kg i.v. or all three): positive chronotropic effect | DBP [3, 4]: 82.7 ± 2.7 mmHg | HR [3, 4]: 380.0 ± 17.2 beats/min | SBP [3, 4]: 115.0 ± 3.1 mmHg | DBP [3, 5]: 65.8 ± 4.6 mmHg | HR [3, 5]: 376.0 ± 17.0 beats/min | SBP [3, 5]: 103.8 ± 6.4 mmHg | DBP [3, 6]: 107.0 ± 4.0 mmHg | SBP [3, 6]: 138.0 ± 4.6 mmHg | DBP [3, 12]: 87.0 ± 4.3 b mmHg | HR [3, 12]: 434.0 ± 26.9 b beats/min | SBP [3, 12]: 123.7 ± 3.2 mmHg | DBP [3, 13]: 86.7 ± 5.0 b mmHg | HR [3, 13]: 448.0 ± 14.4 b beats/min | SBP [3, 13]: 121.7 ± 4.9 mmHg | DBP [3, 14]: 86.0 ± 8.2 b mmHg | HR [3, 14]: 444.0 ± 16.1 b beats/min | SBP [3, 14]: 121.0 ± 7.0 mmHg | DBP [3, 15]: 78.0 ± 7.6 b mmHg | HR [3, 15]: 442.0 ± 20.4 b beats/min | SBP [3, 15]: 112.3 ± 6.1 b mmHg | DBP [3, 16]: 66.3 ± 8.0 b mmHg | HR [3, 16]: 434.0 ± 20.9 b beats/min | SBP [3, 16]: 99.8 ± 7.2 b mmHg
